Data on two compounds can be found in patent publication US11883441B2, “Compositions and methods for inhibiting seizures” (The Regents of the University of California, priority 2016, dated 2024).

One data set relates to Swiss Webster mice. As to the kind of experiment: 6-Hz psychomotor seizure assay. The format is in vivo, mouse.
The subject of data set [1] is gamma-glutamyltranspeptidase (GGT). As to the kind of experiment: GGT activity assay in fecal samples. The note with it: fecal samples exposed in vitro, 500 uM. The format is biochemical. The procedure:
GGT activity was measured as previously described in van der Stel, Frontiers in Microbiology (6), 567 (2015). For anaerobic cultures, bacteria were seeded at 3×10^5 cfu/ml in CD- and KD-based media. 1 ml bacterial suspension was pelleted and frozen at −80° C. for 1 hr. Separate aliquots of the same suspension were plated in BHI mucin agar media or RCM and incubated at 37° C. in a Coy anaerobic chamber for later data normalization by bacterial cfu. Pellets were then resuspended in 250 ul lysis buffer (50 mM Tris-HCl with 1 ug/ml lysozyme) and incubated on ice for 30 min. For fecal samples, one pellet was weighed and homogenized in 1 ml lysis buffer. Bacterial and fecal suspensions were then sonicated (QSonica 125) and centrifuged at 12000×g for 10 min at 4° C. […] Absorbance at 405 nm denoting production of 3-carboxy-4-nitroaniline was measured every minute for 1 hr at 37° C. using an automated multimode plate reader (Biotek Synergy H1).
To gain insight into whether the KD and interactions between A. muciniphila and Parabacteroides spp. suppressed bacterial gamma-glutamylation in vivo, GGT activity was measured in fecal samples collected from SPF or A. muciniphila and Parabacteroides spp.-enriched mice fed the CD or KD.

The subject of another data set is A. muciniphila. As to the kind of experiment: Cross-feeding in vitro assay, A. muciniphila growth. The format is cell-based, Akkermansia muciniphila. The note with it: exposed to P. merdae pre-treated with 500 uM for 2 hours; 24 hours after incubation; vs vehicle-treated P. merdae. As to the method:
(§1) Cross-feeding was measured as previously described. A. muciniphila was embedded at 2×10^6 cfu/ml in 5 ml pre-reduced CD or KD-based liquid media supplemented with 1% agar at the bottom of an anaerobic tube, and P. merdae was overlaid above it at 6×10^6 cfu/ml in 5 ml pre-reduced M9 minimal media. Diet-based media were generated by aseptically suspending mouse KD vs. CD diets, described above, to 2 kcal/ml in M9 media. Pilot experiments confirmed no ectopic translocation of embedded A. muciniphila from the agar compartment into the above M9 liquid compartment. For each time point, aliquots were taken from the top and bottom compartments, plated in a dilution series in rich media (RCM for P. merdae and BHI+0.05% mucins for A. muciniphila), and colonies were counted. For GGsTop pre-treatment experiments, P. merdae was incubated with 500 uM GGsTop vs vehicle in RCM media at 37° C. for 2 hours and then washed with sterile media.

The test system of the next data set is P. merdae. The data set can be described thus: Cross-feeding in vitro assay, P. merdae growth and viability. It counts as cell-based. Conditions: pre-treatment 500 uM, 2 hours, pilot experiments. The procedure: as §1
Another data set relates to Kcna1−/− mice. The data set can be described thus: Kcna1 seizure recordings (EEG). Conditions: CD-fed SPF Kcna1−/− mice; 13.3 mg/kg oral gavage every 12 hours. The format is in vivo, mouse. As to the method:
EEG Implantation and Recovery. EEGs were recorded from male and female Kcna1^−/− mice at 6-7 weeks of age. Kcna1^+/+ littermates were used as controls. […] Data presented include both sexes. Mice were anesthetized with isoflurane (5% induction, 2% maintenance) and eye ointment applied to each eye. Fur was removed along the head, and the area was cleaned with three alternative scrubs of chlorohexidine and 70% isopropanol. In a biosafety cabinet, mice were positioned in a stereotaxic apparatus (Harvard Biosciences) and 1 mg/kg lidocaine+1 mg/kg bupivacaine was applied locally along the incision site. […]
During EEG recordings animals were freely moving and maintained on experimental diet. […] Simultaneous video recordings of behavioral seizures were correlated with EEG recordings and scored based on an adapted Racine scale and defined by 5 stages: 1) myoclonic jerk, 2) head stereotypy and facial clonus, 3) bilateral and alternating forelimb/hindlimb clonus, 4) rearing and falling, and 5) generalized tonic-clonic episodes. Data were analyzed by a blinded researcher using Neuroscore CNS Software (DSI). EEG signals were filtered using a 10 Hz high pass filter, and seizure events were detected by blinded manual scoring. […]
For wild type mice: 4-week old SPF Swiss Webster mice were fed CD ad libitum for 14 days. […] Seizures were recorded over 3 days by EEG beginning 2 hours after the final gavage. […]

Experimental for Swiss Webster mice: All subsequent experimental cohorts contained male mice. One drop (˜50 ul) of 0.5% tetracaine hydrochloride ophthalmic solution was applied to the corneas of each mouse 10-15 min before stimulation. Corneal electrodes were coated with a thin layer of electrode gel (Parker Signagel). A constant-current current device (ECT Unit 57800, Ugo Basile) was used to deliver current at 3 sec duration, 0.2 ms pulse-width and 6 pulses/s frequency. CC50 (the intensity of current required to elicit seizures in 50% of the experimental group) was measured as a metric for seizure susceptibility. […] Each mouse was seizure-tested only once, and thus at least n>6 mice were used to adequately power each experiment group. To determine CC50s for each experimental group, 24 mA currents were administered to the first mouse per experimental group per cohort, followed by fixed increases or decreases by 2 mA intervals. […] Locomotor behavior was recorded using Ethovision XT software (Noldus) and quantitative measures for falling, tail dorsiflexion (Straub tail), forelimb clonus, eye/vibrissae twitching and behavioral remission were scored manually. […] Latency to exploration (time elapsed from when an experimental mouse is released into the observation cage (after corneal stimulation) to its first lateral movement) was scored using Ethovision and manually with an electronic timer. […]

As to Bifidobacterium longum, the “Protection against 6-Hz seizures / seizure threshold” value in the data set on Swiss Webster mice (Abx-treated SPF mice gavaged with 10^9 cfu bacteria, fed KD, tested at 14 days) is “no effect”.

As for `COP(=O)(CCC(N)C(=O)O)Oc1cccc(CC(=O)O)c1` (stereo not drawn) [GGsTop, 3-[[(3-amino-3-carboxypropyl)methoxyphosphinyl]oxy]benzeneacetic acid], in data set [1], the “GGT activity signal of fecal samples” value is reported as “eliminated the detected signals”. Besides, the A. muciniphila growth result in the data set on A. muciniphila is reported as “increased growth”. For the same compound, in the data set with Swiss Webster mice (SPF CD mice gavaged for 3 days, 13.3 mg/kg every 12 hours), the Seizure threshold entry was “increases in seizure thresholds”. Besides, in the data set with P. merdae, the P. merdae viability entry was “no significant effect”. For the same compound, in the data set on Kcna1−/− mice, the Seizures per day result is recorded as “significant decrease in seizures per day”.
